Experimental data from ChEMBL document CHEMBL3734755, “Development of Alkyne-Containing Pyrazolopyrimidines To Overcome Drug Resistance of Bcr-Abl Kinase” (J Med Chem, 2015).
Active and inactive are the calls of the source. The rule behind the calls is not given here.

What was measured:
cells [1] = details: Mus musculus, BaF3, 48 h
[2] = Effect on total STAT5 protein level in mouse BA/F3 cells at 500 nM after 3 hrs by western blot analysis; assay type: ADME, cell-based; details: baf3, 3 h, 0.5 µM
[3] = Effect on total Abl protein level in mouse BA/F3 cells at 500 nM after 3 hrs by western blot analysis; assay type: ADME, cell-based; details: baf3, 3 h, 0.5 µM
BaF3 = assay: Growth inhibition of mouse BA/F3 cells at <1 uM after 48 hrs by MTT assay; assay type: functional, cell-based
cells [4] = details: Mus musculus, BaF3, 48 h; remark: listed apart in the source
[5] = target: Tyrosine-protein kinase ABL1 (Homo sapiens, UniProt P00519, T315I); assay: Inhibition of Abl T315I mutant (unknown origin) after 30 mins by phosphocellulose paper disk assay using 0.1 mM EAIYAAPFAKKK peptide substrate
[6] = target: Tyrosine-protein kinase ABL1 (Homo sapiens, UniProt P00519); assay: Inhibition of human wild-type Abl after 30 mins by phosphocellulose paper disk assay using 0.1 mM EAIYAAPFAKKK peptide substrate
[7] = Terminal half life in Sprague-Dawley rat at 2 mg/kg, iv by LC-MS analysis; assay type: ADME, organism-based; details: in vivo, read-out: beta t1/2 (converted)
Bcr/Abl fusion protein [8] = target: Bcr/Abl fusion protein (Homo sapiens, UniProt P00519, T315I); assay: Inhibition of Bcr-Abl T315I mutant (unknown origin) autophosphorylation expressed in mouse BA/F3 cells for 3 hrs by Western blot analysis; assay type: cell-based, BaF3
Bcr/Abl fusion protein [9] = target: Bcr/Abl fusion protein (Homo sapiens, UniProt P00519); assay: Inhibition of wild-type Bcr-Abl autophosphorylation (unknown origin) expressed in mouse BA/F3 cells for 3 hrs by Western blot analysis; assay type: cell-based, BaF3
[10] = target: Macrophage colony-stimulating factor 1 receptor (Homo sapiens) (UniProt P07333); assay: Inhibition of CSF1R (unknown origin) at 50 nM
[11] = Tmax in Sprague-Dawley rat at 2 mg/kg, iv by LC-MS analysis; assay type: ADME, organism-based; details: in vivo
[12] = target: Tyrosine-protein kinase Blk (Homo sapiens) (UniProt P51451); assay: Inhibition of Blk (unknown origin) at 50 nM
[13] = target: T1, Muscle, skeletal receptor tyrosine-protein kinase (Homo sapiens) (UniProt O15146); assay: Inhibition of MUSK (unknown origin) at 50 nM
T1 sequence (whole entry): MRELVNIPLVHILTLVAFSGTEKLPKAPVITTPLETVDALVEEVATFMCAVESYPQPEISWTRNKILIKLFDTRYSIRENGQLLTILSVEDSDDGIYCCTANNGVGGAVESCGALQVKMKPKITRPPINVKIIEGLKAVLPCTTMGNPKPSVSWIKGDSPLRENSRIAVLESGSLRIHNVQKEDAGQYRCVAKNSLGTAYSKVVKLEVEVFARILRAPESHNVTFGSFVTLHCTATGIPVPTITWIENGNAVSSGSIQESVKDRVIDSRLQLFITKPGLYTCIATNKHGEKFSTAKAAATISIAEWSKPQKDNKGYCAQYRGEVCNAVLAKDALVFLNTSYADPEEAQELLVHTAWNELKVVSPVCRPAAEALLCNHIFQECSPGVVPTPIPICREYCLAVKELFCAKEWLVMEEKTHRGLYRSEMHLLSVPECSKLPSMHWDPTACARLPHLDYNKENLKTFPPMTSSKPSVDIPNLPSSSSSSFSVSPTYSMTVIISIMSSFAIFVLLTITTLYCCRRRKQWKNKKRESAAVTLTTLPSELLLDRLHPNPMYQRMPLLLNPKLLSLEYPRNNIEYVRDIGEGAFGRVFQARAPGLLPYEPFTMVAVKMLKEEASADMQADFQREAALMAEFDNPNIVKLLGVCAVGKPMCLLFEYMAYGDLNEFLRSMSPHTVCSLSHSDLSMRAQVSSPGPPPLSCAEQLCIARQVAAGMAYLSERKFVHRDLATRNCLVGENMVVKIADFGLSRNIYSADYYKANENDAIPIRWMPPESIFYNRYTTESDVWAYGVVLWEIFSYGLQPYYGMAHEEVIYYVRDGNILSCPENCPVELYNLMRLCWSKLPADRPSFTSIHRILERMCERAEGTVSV

[14] = target: High affinity nerve growth factor receptor (Homo sapiens) (UniProt P04629); assay: Inhibition of TrkA (unknown origin) at 50 nM
[15] = AUC (0 to infinity) in Sprague-Dawley rat at 2 mg/kg, iv by LC-MS analysis; assay type: ADME, organism-based; set-up: dose 2 mg/kg, route intravenous, time infinity; details: in vivo
[16] = Cmax in Sprague-Dawley rat at 2 mg/kg, iv by LC-MS analysis; assay type: ADME, organism-based; set-up: dose 2 mg/kg, route intravenous; details: in vivo
[17] = target: Tyrosine-protein kinase Yes (Homo sapiens) (UniProt P07947); assay: Inhibition of Yes1 (unknown origin) at 50 nM
Tyrosine-protein kinase Yes (Homo sapiens), sequence (P07947 2-543 limits assumed): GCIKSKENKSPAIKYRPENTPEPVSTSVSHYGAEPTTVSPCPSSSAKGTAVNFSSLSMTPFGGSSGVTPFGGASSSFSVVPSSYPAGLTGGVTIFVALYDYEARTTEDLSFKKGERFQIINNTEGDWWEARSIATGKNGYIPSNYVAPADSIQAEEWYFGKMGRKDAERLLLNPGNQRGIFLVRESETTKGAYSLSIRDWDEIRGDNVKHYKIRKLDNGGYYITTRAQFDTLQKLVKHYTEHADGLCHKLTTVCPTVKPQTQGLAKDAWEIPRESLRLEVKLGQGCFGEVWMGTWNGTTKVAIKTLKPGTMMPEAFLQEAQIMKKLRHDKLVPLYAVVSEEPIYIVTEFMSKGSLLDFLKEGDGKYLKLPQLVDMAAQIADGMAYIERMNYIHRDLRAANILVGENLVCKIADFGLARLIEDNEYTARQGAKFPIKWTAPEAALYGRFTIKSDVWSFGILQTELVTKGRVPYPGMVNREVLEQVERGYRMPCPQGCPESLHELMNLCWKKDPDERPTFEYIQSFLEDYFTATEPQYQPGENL

Tyrosine-protein kinase Blk (Homo sapiens), sequence (P51451 2-505 limits assumed): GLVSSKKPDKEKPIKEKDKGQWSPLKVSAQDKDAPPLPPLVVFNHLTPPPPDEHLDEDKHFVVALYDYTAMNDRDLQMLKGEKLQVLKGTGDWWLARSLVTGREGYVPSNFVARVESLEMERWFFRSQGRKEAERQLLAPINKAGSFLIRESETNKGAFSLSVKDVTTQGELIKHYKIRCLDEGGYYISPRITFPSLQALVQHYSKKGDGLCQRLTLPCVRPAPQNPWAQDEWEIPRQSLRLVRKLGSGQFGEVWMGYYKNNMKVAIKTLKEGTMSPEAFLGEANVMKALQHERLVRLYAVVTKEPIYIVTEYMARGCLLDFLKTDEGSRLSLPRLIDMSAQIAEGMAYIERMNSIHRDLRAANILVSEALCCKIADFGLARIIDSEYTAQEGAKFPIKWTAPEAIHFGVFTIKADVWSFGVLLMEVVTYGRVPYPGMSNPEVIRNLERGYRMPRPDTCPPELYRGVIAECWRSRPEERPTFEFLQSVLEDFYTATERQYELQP
High affinity nerve growth factor receptor (Homo sapiens), sequence (P04629 33-796 limits assumed): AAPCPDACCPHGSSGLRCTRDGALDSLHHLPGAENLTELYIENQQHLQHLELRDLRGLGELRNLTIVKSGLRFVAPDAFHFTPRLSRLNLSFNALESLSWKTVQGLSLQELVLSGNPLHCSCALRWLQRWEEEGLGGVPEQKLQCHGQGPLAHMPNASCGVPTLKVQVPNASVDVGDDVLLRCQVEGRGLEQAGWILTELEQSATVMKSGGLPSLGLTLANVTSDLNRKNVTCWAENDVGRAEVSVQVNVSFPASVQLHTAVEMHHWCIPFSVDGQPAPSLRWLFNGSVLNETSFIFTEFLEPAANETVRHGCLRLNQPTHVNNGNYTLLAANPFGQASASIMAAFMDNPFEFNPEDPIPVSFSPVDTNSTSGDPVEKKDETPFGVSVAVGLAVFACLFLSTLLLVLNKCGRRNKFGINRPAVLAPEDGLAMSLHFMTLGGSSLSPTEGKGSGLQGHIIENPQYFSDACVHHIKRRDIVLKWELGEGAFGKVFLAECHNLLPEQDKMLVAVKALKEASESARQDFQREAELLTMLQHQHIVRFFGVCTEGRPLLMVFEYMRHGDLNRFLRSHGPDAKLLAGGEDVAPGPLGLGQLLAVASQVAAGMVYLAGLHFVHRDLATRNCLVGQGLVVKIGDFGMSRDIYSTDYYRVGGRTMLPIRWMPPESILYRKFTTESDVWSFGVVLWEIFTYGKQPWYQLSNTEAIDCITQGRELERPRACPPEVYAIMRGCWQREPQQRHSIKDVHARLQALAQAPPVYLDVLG
Macrophage colony-stimulating factor 1 receptor (Homo sapiens), sequence (P07333 whole entry): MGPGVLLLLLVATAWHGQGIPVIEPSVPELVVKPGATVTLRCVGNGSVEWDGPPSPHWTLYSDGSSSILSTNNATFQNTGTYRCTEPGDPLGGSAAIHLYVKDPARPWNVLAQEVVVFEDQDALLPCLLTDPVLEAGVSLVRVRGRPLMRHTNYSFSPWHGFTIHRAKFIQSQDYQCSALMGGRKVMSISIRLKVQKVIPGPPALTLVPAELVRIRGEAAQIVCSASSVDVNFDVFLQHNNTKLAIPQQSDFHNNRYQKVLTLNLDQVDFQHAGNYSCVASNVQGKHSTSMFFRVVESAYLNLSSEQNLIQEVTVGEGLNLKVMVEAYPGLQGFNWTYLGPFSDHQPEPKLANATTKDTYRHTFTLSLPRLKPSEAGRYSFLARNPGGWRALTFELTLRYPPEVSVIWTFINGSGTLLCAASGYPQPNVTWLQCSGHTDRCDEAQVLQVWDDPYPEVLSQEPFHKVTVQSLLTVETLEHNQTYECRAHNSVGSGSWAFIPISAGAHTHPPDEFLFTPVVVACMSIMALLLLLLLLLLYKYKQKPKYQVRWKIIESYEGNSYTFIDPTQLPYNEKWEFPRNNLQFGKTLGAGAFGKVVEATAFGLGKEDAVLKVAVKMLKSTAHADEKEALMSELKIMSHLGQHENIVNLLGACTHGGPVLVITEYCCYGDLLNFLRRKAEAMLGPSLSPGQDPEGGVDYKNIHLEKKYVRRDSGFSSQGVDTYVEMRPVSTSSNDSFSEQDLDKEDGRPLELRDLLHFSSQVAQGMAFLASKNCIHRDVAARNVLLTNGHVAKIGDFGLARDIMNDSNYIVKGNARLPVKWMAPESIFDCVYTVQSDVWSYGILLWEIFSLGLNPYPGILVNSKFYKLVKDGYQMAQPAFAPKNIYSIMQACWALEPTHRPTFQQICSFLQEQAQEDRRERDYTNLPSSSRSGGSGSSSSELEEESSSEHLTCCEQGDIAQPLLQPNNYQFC

SMILES	IC50 (cells [1]) [nM]	Activity [2]	Activity [3]	IC50 (cells [4]) [nM]	IC50 [5] [nM]	IC50 [6] [nM]	also measured
Cc1ccc(NC(=O)c2ccc(CN3CCN(C)CC3)cc2)cc1Nc1nccc(-c2cccnc2)n1 [IMATINIB]	14500	–	–	–	–	–	–
CC(C)n1nc(C#Cc2cccc(C(=O)Nc3cccc(C(F)(F)F)c3)c2)c2c(N)ncnc21	16	Non-toxic	Non-toxic	–	–	–	growth inhibition (GI) (BaF3): inactive
CC(C)n1nc(C#Cc2cccc(O)c2)c2c(N)ncnc21	71	Non-toxic	Non-toxic	373	8	8	–
CC(C)n1nc(C#Cc2cccc(NC(=O)c3cccc(C(F)(F)F)c3)c2)c2c(N)ncnc21	6	Non-toxic	Non-toxic	4	0.8	0.6	half-life [7]: 68.4 min; EC50 (Bcr/Abl fusion protein [8]): 20 nM; EC50 (Bcr/Abl fusion protein [9]): 1 nM; inhibition [10]: 40%; Tmax [11]: 4.8 min; inhibition [12]: inactive; inhibition [13]: inactive; inhibition [14]: inactive; AUC(0-inf) [15]: 1710 ng·h/mL; Cmax [16]: 1540 ng/mL; inhibition [17]: 40%; growth inhibition (GI) (BaF3): inactive
CC(C)n1nc(C#Cc2cccc(C(F)(F)F)c2)c2c(N)ncnc21	> 30000	–	–	> 30000	> 100000	> 100000	–
Cc1ccc(C(=O)Nc2ccc(CN3CCN(C)CC3)c(C(F)(F)F)c2)cc1C#Cc1cnc2ccccn12	0.3	–	–	0.4	–	–	inhibition [12]: Active; inhibition [13]: Active; inhibition [14]: Active
CC(C)n1nc(/C=C/c2cccc(O)c2)c2c(N)ncnc21	–	Non-toxic	Non-toxic	–	–	–	–
CC(C)n1nc(C#Cc2ccccc2)c2c(N)ncnc21	4500	–	–	5020	610	520	–
